Source: publication PMC12022980, “Rational Design of PROTAC Linkers Featuring Ferrocene as a Molecular Hinge to Enable Dynamic Conformational Changes” (Journal of the American Chemical Society, 2025)

Experiment: HBD acidity NMR score (ANMR), amide NH shifts in CDCl3 vs DMSO-d6
Format: physicochemical
Excerpt: With this premise, we performed NMR studies to quantify the HBD solvent exposure of the amide protons using the HBD Acidity NMR score (ANMR)[47] and variable temperature studies (vt-NMR).[48] To note, although vt-NMR has originally been developed and applied to the study of peptides,[49] it is, together with the ANMR value, a well-established method for studying the intramolecular hydrogen bonding (IMHB) patterns in systems such as PROTACs[10],[12],[18],[26] as well as in ferrocene structures.[29],[50]−[53]
Considering the assumed flexibility of the ferrocene moiety, we anticipated the amide protons in AS4 next to the ferrocene moiety, i.e., N(3)-H and N(4)-H, to show greater shielding effects in CDCl3 as compared to DMSO-d6, consistently with a preference for the cis conformation. In contrast, in the presence of a strong hydrogen-bond acceptor solvent such as DMSO-d6, the intercalation of polar solvent molecules is likely to disrupt the IMHB, favoring an expanded trans conformation[50] of the substituent chains (Figure 4A). An initial analysis of the ^1H NMR spectra was obtained on samples in deuterated CDCl3 and DMSO-d6. […]
The chemical shift difference between the two solvents (Δδ) can be converted into hydrogen bond acidity (ANMR) for a quantitative assessment of IMHB. […]
Standard NMR experiments were performed at 298 K, while variable-temperature NMR experiments recorded spectra across a temperature range from 298 K to 328 K allowing a sufficient temperature equilibration time (10–15 min) before signal acquisition. All NOESY spectra for conformational analysis as well as the assignment spectra in methanol-d 4 were recorded on a 500 MHz Bruker Avance III equipped with a 5 mm QCI cryogenic probe. NOESY spectra were obtained from a sample at 1.25 mM in CDCl3 and 1.25 mM in methanol-d4, recorded at 298 K, using 16 transients, 1024 points in the direct dimension and 512 points in the indirect dimension, a relaxation delay of 1.5 s, and a mixing time of 700 ms. All other spectra used for signal assignment in CDCl3 were recorded on 500 MHz Bruker Avance NEO with a BBFO SmartProbe. […]

Structure (SMILES): Cc1ncsc1-c1ccc(CNC(=O)[C@@H]2C[C@@H](O)CN2C(=O)[C@@H](NC(=O)CCCCCOCCOCCCCCC(=O)Nc2cccc3c2C(=O)N(C2CCC(=O)NC2=O)C3=O)C(C)(C)C)cc1 (stereo partly drawn) [14a]
- ANMR N(1)-H: 0.16
- Δδ N(1)-H: 1.16 ppm
- Δδ N(2)-H: 0.15 ppm
